Experimental findings from patent publication US20240269139A1, “COMPOUNDS FOR TARGETED PROTEIN DEGRADATION OF KINASES” (DANA-FARBER CANCER INSTITUTE, INC., priority 2020, published 2024) are described below.

In test [1] the target is protein kinases (human kinome) (Homo sapiens, UniProt P06241). Type of test: cell-based. The note with it: for logFC: FYN (P06241-1), direction down.
Test [2] deals with protein kinases (human kinome) (Homo sapiens, UniProt P12931). Type of test: cell-based. Particulars: for logFC of SRC: Accession P12931; for logFC: SRC (P12931), direction down.
The target of test [3] is protein kinases (human kinome) (Homo sapiens, UniProt Q9Y4K4). It is filed as cell-based. The note with it: MAP4K5 (Q9Y4K4).
In the next test the target is T1, CRBN (Homo sapiens, UniProt Q96SW2).
T1 construct: HEK293T cells stably expressing the BRD4BD2-GFP with mCherry reporter; endogenous in cells; host or cells: HEK293T stably expressing BRD4BD2-GFP / mCherry reporter
Description: Competitive displacement assay for cellular CRBN engagement (BRD4BD2-GFP reporter, dBET6). Type of test: cell-based, H. sapiens. Particulars: 5 hours in presence of dBET6. The procedure:
HEK293T cells stably expressing the BRD4BD2-GFP with mCherry reporter were seeded at 30-50% confluency in 384-well plates with 50 μL FluoroBrite™ Dulbecco's Modified Eagle's medium (DMEM) media (Thermo Fisher Scientific. A18967) containing 10% fetal bovine serum (FBS) per well a day before compound treatment. Degrader titrations and 100 nM dBET6 or 250 nM AT1 were dispensed using a D300e Digital Dispenser (HP), normalized to 0.5% DMSO, and incubated with cells for 5 hours. Assay plates were imaged using Acumen® (TTP Labtech), as described above.

Test [4] concerns protein kinases in MOLT-4 cells. Description: Whole cell quantitative proteomics in MOLT-4 cells. The note with it: for GCK binding and degradation: 1 μM, 5 h; for kinase degradation over time: MOLT-4, 1 μM, 1, 2, 4, 8 and 12 h.
Test [5] deals with protein kinases (human kinome) (Homo sapiens, UniProt O94921). It is filed as cell-based. The note with it: for logFC: CDK14 (O94921-1).
Test [6] concerns the target extended human kinome (kinase-like proteins) (Homo sapiens, UniProt P27144). The experiment in a line: Whole cell quantitative proteomics: extended kinome hits.
In test [7] the target is T2, extended human kinome (kinase-like proteins) (Homo sapiens, UniProt Q53R41).
T2 sequence (Q53R41 1-847): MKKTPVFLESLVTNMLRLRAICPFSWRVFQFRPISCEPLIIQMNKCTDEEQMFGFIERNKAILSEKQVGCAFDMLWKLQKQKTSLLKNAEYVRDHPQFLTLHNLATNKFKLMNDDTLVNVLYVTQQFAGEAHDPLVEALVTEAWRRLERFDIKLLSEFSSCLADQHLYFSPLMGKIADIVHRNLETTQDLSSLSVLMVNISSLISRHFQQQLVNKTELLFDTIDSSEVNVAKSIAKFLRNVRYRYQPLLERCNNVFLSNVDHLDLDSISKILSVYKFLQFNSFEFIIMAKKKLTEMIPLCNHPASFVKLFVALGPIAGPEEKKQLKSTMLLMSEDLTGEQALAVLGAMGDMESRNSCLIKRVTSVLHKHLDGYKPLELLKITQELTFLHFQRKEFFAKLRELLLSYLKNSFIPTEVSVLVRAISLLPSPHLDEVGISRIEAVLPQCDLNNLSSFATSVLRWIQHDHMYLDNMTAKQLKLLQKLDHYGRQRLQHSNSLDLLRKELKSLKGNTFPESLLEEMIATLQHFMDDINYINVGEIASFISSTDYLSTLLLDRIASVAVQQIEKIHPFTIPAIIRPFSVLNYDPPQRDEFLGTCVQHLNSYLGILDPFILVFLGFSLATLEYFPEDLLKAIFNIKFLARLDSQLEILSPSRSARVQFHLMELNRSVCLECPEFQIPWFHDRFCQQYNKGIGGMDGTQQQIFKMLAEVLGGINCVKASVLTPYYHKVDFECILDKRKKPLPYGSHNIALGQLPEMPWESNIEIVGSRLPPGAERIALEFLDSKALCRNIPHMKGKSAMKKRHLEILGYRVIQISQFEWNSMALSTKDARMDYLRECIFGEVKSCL
The test is described as above.

The target in test [8] is protein kinases (human kinome) (Homo sapiens, UniProt P54646). Type of test: cell-based. The note with it: for logFC: PRKAA2 (P54646).
Test [9] deals with protein kinases (human kinome) (Homo sapiens, UniProt Q16659). Type of test: cell-based.
Test [10] deals with protein kinases (human kinome) (Homo sapiens, UniProt Q7KZI7). It is filed as cell-based.
Setting [11] is: Accession P06241-1, experiment wp105.
Setting [12] is: experiment wp107, direction down.
Setting [13] is: Accession P06241-1, experiment wp107.

Read-outs that look alike come from different tables or passages of the source.

`Cc1ccc(NC(=O)c2cccc(C(F)(F)F)c2)cc1N1Cc2cnc(Nc3ccc(N4CCN(Cc5cn(CCCCCOc6cccc7c6C(=O)N(C6CCC(=O)NC6=O)C7=O)nn5)CC4)nc3)nc2N(C)C1=O` (stereo not drawn) [DB0646, N-(3-(7-((6-(4-((1-(5-((2-(2,6-Dioxopiperidin-3-yl)-1,3-dioxoisoindolin-4-yl)oxy)pentyl)-1H-1,2,3-triazol-4-yl)methyl)piperazin-1-v)pyridin-3-yl)amino)-1-methyl-2-oxo-1,4-dihydropyrimido[4,5-d]pyrimidin-3(2H)-yl)-4-methylphenyl)-3-(trifluoromethyl)benzamide]: the “logFC FYN” value was −0.4621 in [1] (setting [11]) and −0.3685 in test [1] (Accession P06241, experiment wp152). In addition, in test [1] (Experiment wp152, direction of change down), the “logFC FYN (P06241)” value is −0.3685. The logFC in [1] (experiment wp105) is on record as −0.4621; in [2] (experiment wp152), −0.3941; in test [2] (experiment wp160, 4 hr), −0.5186; in test [2] (experiment wp160, 8 hr), −0.6833; in test [3] (experiment wp045), −0.4109; in [3] (experiment wp045, direction down) it was −0.4109. In addition, the logFC was −0.3345 in test [3] (experiment wp107); −0.3345 in test [3] (setting [12]); −0.5009 in test [3] (experiment wp160, 8 hr); −0.5009 in test [3] (experiment wp160, 8 hr, direction down). Besides, the “logFC of SRC” value in [2] (experiment wp152) is on record as −0.3941; in test [2] (experiment wp160, 4 hr), −0.5186; in test [2] (experiment wp160, 8 hr), −0.6833. Moreover, the “cellular permeability / CRBN engagement” value at CRBN was “able to permeate the cell membrane and bind to the CRBN E3 ligase”. The “GCK binding and degradation” value in test [4] is “bound and degraded”. Further, the “kinase degradation over time” value in test [4] is “most kinases showed increased degradation over time”.
With `Cc1ccc(C(=O)Nc2ccc(CN3CCN(CCCOCCOCCOCCNC(=O)COc4cccc5c4C(=O)N(C4CCC(=O)NC4=O)C5=O)CC3)c(C(F)(F)F)c2)cc1C#Cc1cnc2cccnn12` (stereo not drawn) [SB1.G.187], the logFC in test [5] (experiment wp172) is recorded as −1.525; in [1] (experiment wp105), −0.7697; in [1] (experiment wp107), −0.3601; in test [3] (experiment wp105), −0.3488; in test [3] (experiment wp105, direction down), −0.3488; in test [3] (experiment wp107) it was −0.4411. Besides, in [3] (setting [12]), the logFC is on record as −0.4411. For the same molecule, the “logFC of CDK14 (O94921-1)” value in [5] (Experiment wp172) is listed as −1.525. The “logFC FYN” value in test [1] (setting [11]) was −0.7697; in [1] (setting [13]) it was −0.3601. Besides, the “logFC AK4 (P27144)” value in test [6] (experiment wp056) was −0.4478. The “logFC FASTKD1” value in [7] (Accession Q53R41, experiment wp056) is on record as −0.4811.
As for `Cc1ccc(C(=O)Nc2ccc(CN3CCN(CCCOCCOCCOCCNC(=O)COc4cccc5c4C(=O)N(C4CCC(=O)NC4=O)C5=O)CC3)c(C(F)(F)F)c2)cc1C#Cc1cnc2cccnn12` (stereo not drawn) [SB1-G-187, N-(4-((4-(1-((2-(2,6-dioxopiperidin-3-yl)-1,3-dioxoisoindolin-4-yl)oxy)-2-oxo-6,9,12-trioxa-3-azapentadecan-15-yl)piperazin-1-yl)methyl)-3 (trifluoromethyl)phenyl)-3-(imidazo[1,2-b]pyridazin-3-ylethynyl)-4-methylbenzamide], the “cellular permeability / CRBN engagement” value on CRBN was “able to permeate the cell membrane and bind to the CRBN E3 ligase”. For the same molecule, the “GCK binding and degradation” value in test [4] is “bound and degraded”.
As for `O=C1CCC(N2C(=O)c3cccc(NCCCCCCCCN4CCC(NC(=O)c5[nH]ncc5NC(=O)c5c(Cl)cccc5Cl)CC4)c3C2=O)C(=O)N1` (stereo not drawn) [MFH.5.126.1], in test [5] (experiment wp076), the logFC is reported as −0.3413 and the “logFC of CDK14 (O94921-1)” value is listed as −0.3413.
On to `Cc1cc(Nc2ncc(Br)c(Nc3cccc(F)c3C(N)=O)n2)ccc1S(=O)(=O)NCCOCCOCCOCCOCCNc1cccc2c1C(=O)N(C1CCC(=O)NC1=O)C2=O` (stereo not drawn) [TMX.02.174], for which, in test [8] (experiment wp146), the logFC is −1.826 and the “logFC of PRKAA2 (P54646)” value is −1.826.
Consider `CC(C)S(=O)(=O)c1ccccc1Nc1nc(Nc2ccc(N3CCN(CCOCCNC(=O)CNc4cccc5c4C(=O)N(C4CCC(=O)NC4=O)C5=O)CC3)cc2)ncc1Cl` (stereo not drawn) [SK-3-91], for which the “cellular permeability / CRBN engagement” value at CRBN was “able to permeate the cell membrane and bind to the CRBN E3 ligase”. Further, in [4], the “GCK binding and degradation” value is “not degraded”; the “kinase degradation over time” value is on record as “most kinases showed increased degradation over time”.
With `CC(C)S(=O)(=O)c1ccccc1Nc1nc(Nc2ccc(N3CCN(CCOCCNC(=O)CNc4cccc5c4C(=O)N(C4CCC(=O)NC4=O)C5=O)CC3)cc2)ncc1Cl` (stereo not drawn) [SK.3.91], the logFC in test [5] (experiment wp172) is given as −0.8176; in test [1] (experiment wp105), −0.3586; in test [1] (experiment wp107) it was −0.4288; in test [2] (experiment wp160, 4 hr) it was −0.5292; in test [8] (experiment wp105) it was −0.9029; in [8] (experiment wp172) it was −0.926. Further, the logFC is −0.8253 in [9] (MAPK6 (Q16659), experiment wp133, 2 hr); −0.8253 in [9] (MAPK6 (Q16659), experiment wp133, 2 hr, direction down); −1.614 in [9] (MAPK6 (Q16659), experiment wp133, 4 hr); −1.614 in [9] (MAPK6 (Q16659), experiment wp133, 4 hr, direction down); −1.525 in test [9] (MAPK6 Q16659, experiment wp103); −1.345 in [9] (MAPK6 Q16659, experiment wp107). In addition, the logFC in test [10] (MARK2 (Q7KZI7-1), experiment wp107, direction down) was −0.5266; in test [10] (MARK2 (Q7KZI7-1), experiment wp172, direction down), −0.6351; in test [10] (MARK2 Q7KZI7-1, experiment wp107), −0.5266; in [10] (MARK2 Q7KZI7-1, experiment wp172), −0.6351. For the same molecule, the “logFC of CDK14 (O94921-1)” value in [5] (Experiment wp172) is given as −0.8176. Besides, the “logFC FYN” value in test [1] (setting [11]) is listed as −0.3586; in test [1] (setting [13]) it was −0.4288. Further, the “logFC of SRC” value in [2] (experiment wp160, 4 hr) is listed as −0.5292. Also, the “logFC of PRKAA2 (P54646)” value was −0.926 in test [8] (Experiment wp172) and −0.9029 in test [8] (experiment wp105). The “logFC MAPK6” value in test [9] (MAPK6 Q16659, experiment wp103) is recorded as −1.525; in test [9] (MAPK6 Q16659, experiment wp107), −1.345. Moreover, in test [6] (experiment wp160, 1 hr), the “logFC AK4 (P27144)” value was −0.8232. The “logFC FASTKD1 (Q53R41)” value in [7] (experiment wp160, 1 hr) is listed as −0.8675.
